{
  "source": "patent US10350179B2",
  "about": "“Combination comprising palmitoylethanolamide (PEA) and lycopene for use in the treatment of inflammatory diseases” (Raffaele MIGLIACCIO, priority 2015, dated 2019)",
  "origin": "cited, not measured here",
  "conditions": "dietary intake, background statement",
  "data": [
    {"smiles": "CC(C)=CCC/C(C)=C/C=C/C(C)=C/C=C/C(C)=C/C=C/C=C(C)/C=C/C=C(C)/C=C/C=C(\\C)CCC=C(C)C", "note": "[Lycopene]", "values": [
      {"measurement": "Concentration in human plasma", "result": "220 to 1060", "unit": "nM"}
    ]}
  ]
}
